Tests used:
DnaA (wtDnaA) = target: T1, DnaA (wtDnaA) (Escherichia coli, UniProt P03004, H202Y); assay: ATP binding assay
T1 sequence (P03004 1-467 H202Y): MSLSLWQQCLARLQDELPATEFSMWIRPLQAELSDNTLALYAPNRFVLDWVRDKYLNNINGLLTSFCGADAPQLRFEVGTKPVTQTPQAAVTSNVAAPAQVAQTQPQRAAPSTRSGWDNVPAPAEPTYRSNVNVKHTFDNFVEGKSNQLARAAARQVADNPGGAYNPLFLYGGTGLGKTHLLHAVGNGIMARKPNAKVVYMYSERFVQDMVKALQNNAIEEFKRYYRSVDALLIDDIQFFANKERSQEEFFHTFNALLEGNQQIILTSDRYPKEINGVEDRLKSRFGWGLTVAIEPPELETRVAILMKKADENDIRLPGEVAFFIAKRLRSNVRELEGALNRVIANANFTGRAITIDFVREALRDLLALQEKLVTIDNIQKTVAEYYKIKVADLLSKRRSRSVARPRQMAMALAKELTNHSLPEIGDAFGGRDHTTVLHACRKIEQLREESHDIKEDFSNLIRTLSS

Hda (E. coli) = Hda (E. coli) (UniProt P69931); assay: SEC

| Kd (DnaA (wtDnaA)) [nM] | stoichiometry N (Hda (E. coli)) | Compound |
| --- | --- | --- |
| 360 | – | Nc1ncnc2c1ncn2[C@@H]1O[C@H](COP(=O)(O)OP(=O)(O)OP(=O)(O)O)[C@@H](O)[C@H]1O [ATP] |
| – | 2 | Hda (from UniProt P69931 1-233) (natural protein) |

From article PMC3905854 (Nucleic Acids Research, 2013)
